The target of test [1] is T1, Skate VDR (Leucoraja erinacea, UniProt A0A088GDQ7).
T1 sequence (A0A088GDQ7 1-434): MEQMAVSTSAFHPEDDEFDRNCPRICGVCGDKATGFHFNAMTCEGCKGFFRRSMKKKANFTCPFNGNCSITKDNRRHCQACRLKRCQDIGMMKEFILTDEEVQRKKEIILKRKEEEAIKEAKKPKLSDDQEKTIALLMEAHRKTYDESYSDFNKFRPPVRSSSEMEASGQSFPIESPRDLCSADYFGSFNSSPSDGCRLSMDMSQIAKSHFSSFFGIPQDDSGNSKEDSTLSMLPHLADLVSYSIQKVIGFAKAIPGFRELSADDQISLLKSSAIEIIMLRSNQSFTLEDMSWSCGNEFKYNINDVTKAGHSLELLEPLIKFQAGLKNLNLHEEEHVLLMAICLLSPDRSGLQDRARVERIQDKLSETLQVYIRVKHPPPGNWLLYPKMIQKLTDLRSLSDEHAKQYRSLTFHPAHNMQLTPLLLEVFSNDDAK
T1 sequence (P19793 1-462 partner): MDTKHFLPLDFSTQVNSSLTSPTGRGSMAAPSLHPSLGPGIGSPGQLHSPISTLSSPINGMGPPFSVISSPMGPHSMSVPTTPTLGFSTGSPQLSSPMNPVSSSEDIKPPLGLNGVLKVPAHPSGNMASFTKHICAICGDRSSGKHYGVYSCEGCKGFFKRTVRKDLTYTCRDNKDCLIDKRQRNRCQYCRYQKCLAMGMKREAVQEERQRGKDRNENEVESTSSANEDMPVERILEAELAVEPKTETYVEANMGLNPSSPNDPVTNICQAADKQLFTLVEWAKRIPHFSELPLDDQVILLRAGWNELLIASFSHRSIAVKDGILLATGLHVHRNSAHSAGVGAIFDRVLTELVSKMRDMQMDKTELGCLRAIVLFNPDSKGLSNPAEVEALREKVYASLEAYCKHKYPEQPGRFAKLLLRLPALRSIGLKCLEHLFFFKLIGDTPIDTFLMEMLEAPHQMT
In words: Competitive ligand binding assay ([3H]-1,25D3 displacement). The note with it: lysate with VDR and human RXRWT; 4 nM [3H]-1,25D3; 18 hours at 4°C; Cheng-Prusoff; mean ± SEM. How it is done:
(§1) Recombinant VDR and human RXRWT lysates were prepared from transfected COS7 cells (American Type Culture Collection #CRL-1651) as described in detail previously. Lysates were diluted 10-fold in ice-cold assay buffer (10 mM Tris HCl, 150 mM KCl, 1 mM EDTA, 0.3 mM ZnCl2, 5 mM DTT, and 1x protease inhibitor cocktail (100 μM AEBSF, 80 nM aprotinin, 5 μM bestatin, 1.5 μM E-64 (for cysteine proteases), 2 μM leupeptin, 1 μM pepstatin A), pH 7.5). […] Reactions were shaken to mix and incubated for 18 hours at 4°C. Bound and free ligand were separated with the addition of 80 μL of ice-cold separation buffer (2.5% (w/v) activated charcoal, 0.5% (w/v) dextran, 100 mM Na2HPO4, 39 mM NaH2PO4, 150 mM NaCl, 15 mM NaN3, 10% gelatin, pH 7.0), and incubated at 4°C for 15 minutes with shaking every 5 minutes. Reactions were centrifuged at 5,000 x g for 5 minutes at 4°C, and 200 μL of the supernatant containing the VDR-bound ligands was removed for scintillation counting.
(§2) Total binding was determined using lysate from cells transfected with VDR, and nonspecific binding was determined using lysate from cells transfected with the empty pSG5 vector. Specific binding was determined by subtracting non-specific binding counts from the total binding counts.

For test [2], the target named is Medaka VDRα (Oryzias latipes, UniProt B2CCA0). The description is as above. The note with it: lysate with VDR and human RXRWT; 4 nM [3H]-1,25D3; 18 hours at 4°C; Cheng-Prusoff; mean ± SEM. How it is done:
as §1, §2

The target of test [3] is T2, Human VDR (Homo sapiens, UniProt P11473).
T2 sequence (P11473 1-427): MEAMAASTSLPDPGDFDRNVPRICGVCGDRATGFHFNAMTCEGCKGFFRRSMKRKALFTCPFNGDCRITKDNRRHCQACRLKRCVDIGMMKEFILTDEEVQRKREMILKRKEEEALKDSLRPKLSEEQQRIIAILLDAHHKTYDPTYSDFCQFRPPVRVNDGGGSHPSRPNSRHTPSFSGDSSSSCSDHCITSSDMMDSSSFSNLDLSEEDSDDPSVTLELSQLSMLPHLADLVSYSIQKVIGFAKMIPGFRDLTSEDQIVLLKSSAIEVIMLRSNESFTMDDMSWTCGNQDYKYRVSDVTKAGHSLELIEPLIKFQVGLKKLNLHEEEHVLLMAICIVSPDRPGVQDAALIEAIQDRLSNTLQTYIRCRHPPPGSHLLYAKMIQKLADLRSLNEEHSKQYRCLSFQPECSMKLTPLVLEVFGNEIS
In words: Transient transactivation assay (XREM-Luc, HepG2). It counts as cell-based. The settings on record: 100 μM LCA. How it is done:
HepG2 cells (American Type Culture Collection #HB-8065) were cultured in T75 flasks with vented caps (Corning Life Sciences, Corning, NY) using Minimum Essential Medium (MEM) with phenol red supplemented with 10% fetal bovine serum, 1 mM sodium pyruvate, and 1X MEM non-essential amino acids. Cells were maintained following standard protocols in a 5% CO2 incubator set at 37°C, and split when 80–90% confluent.
For the transient transactivation assays, HepG2 cells were seeded in 96-well tissue culture plates at a density of 2.5x10^4 cells per well in complete phenol red-free MEM, and allowed to recover overnight. Transfections were performed the following day using Lipofectamine 2000 (Life Technologies, Grand Island, NY) as described previously. For functional comparisons, 89.7 ng/well of full-length pSG5-VDR was co-transfected with 19.2 ng/well human XREM-Luc reporter and 4.5 ng/well of pRL-CMV as an internal luciferase control. Coregulator studies included the addition of 18.3 ng/well of human coregulators (pCDNA-RXRWT, pCDNA-RXRAF2, pSG5-SRC1, pSG5-GRIP1 or pSG5-ACTR) where indicated. […] Controls include 120 nM 1,25D3 as a positive control, and ethanol as a vehicle control. Twenty-four hours post-exposure cells were tested for luciferase activity using the Dual-Glo Luciferase Assay System (Promega Corporation, Madison, WI) according to the manufacturer’s protocols. Luciferase data were first normalized to the pRL-CMV internal luciferase control. […] To calculate the impact of coregulators on VDR transactivation, VDR response in the presence of coregulators was normalized to VDR alone. All experiments were repeated 3 times and conducted as groups of 4 replicate wells. VDR response in the absence of coregulators was analyzed using a 1-way ANOVA followed by Dunnett’s multiple comparisons test. To examine the effects of different coregulators on VDR activation, data were analyzed using a 2-way ANOVA followed by Bonferroni’s multiple comparisons test in GraphPad Prism (GraphPad Inc, San Diego, CA).

Test [4] deals with all VDR orthologs/paralogs tested. In words: Competitive ligand binding assays, all receptors together. The settings on record: range over all eight VDR orthologs/paralogs.
Procedure: Recombinant VDR and human RXRWT lysates were prepared from transfected COS7 cells (American Type Culture Collection #CRL-1651) as described in detail previously [32, 33]. Lysates were diluted 10-fold in ice-cold assay buffer (10 mM Tris HCl, 150 mM KCl, 1 mM EDTA, 0.3 mM ZnCl2, 5 mM DTT, and 1x protease inhibitor cocktail (100 μM AEBSF, 80 nM aprotinin, 5 μM bestatin, 1.5 μM E-64 (for cysteine proteases), 2 μM leupeptin, 1 μM pepstatin A), pH 7.5). […] Reactions were shaken to mix and incubated for 18 hours at 4°C. Bound and free ligand were separated with the addition of 80 μL of ice-cold separation buffer (2.5% (w/v) activated charcoal, 0.5% (w/v) dextran, 100 mM Na2HPO4, 39 mM NaH2PO4, 150 mM NaCl, 15 mM NaN3, 10% gelatin, pH 7.0), and incubated at 4°C for 15 minutes with shaking every 5 minutes. Reactions were centrifuged at 5,000 x g for 5 minutes at 4°C, and 200 μL of the supernatant containing the VDR-bound ligands was removed for scintillation counting.

Each structure is given as a SMILES string.

Sequence of Medaka VDRα (B2CCA0 entry or part of it, one chain of several): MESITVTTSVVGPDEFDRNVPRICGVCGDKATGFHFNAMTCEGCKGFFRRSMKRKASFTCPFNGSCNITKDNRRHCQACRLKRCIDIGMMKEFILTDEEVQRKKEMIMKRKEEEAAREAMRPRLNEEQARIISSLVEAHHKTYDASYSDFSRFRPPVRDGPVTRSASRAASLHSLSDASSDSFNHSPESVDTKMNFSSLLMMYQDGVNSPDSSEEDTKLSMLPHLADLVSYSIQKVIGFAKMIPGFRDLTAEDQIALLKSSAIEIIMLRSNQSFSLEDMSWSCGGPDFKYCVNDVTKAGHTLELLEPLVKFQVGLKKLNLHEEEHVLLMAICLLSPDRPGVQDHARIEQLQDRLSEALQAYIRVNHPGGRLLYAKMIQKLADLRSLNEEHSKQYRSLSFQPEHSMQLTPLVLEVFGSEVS

Turning to `C[C@H](CCC(=O)O)[C@H]1CC[C@H]2[C@@H]3CC[C@@H]4C[C@H](O)CC[C@]4(C)[C@H]3CC[C@]12C` [LCA, 5β-cholanic acid-3α-ol], the Ki (commonly a dissociation constant, usually derived from enzyme kinetics or from competition with a known ligand) in test [1] is 6.7 ± 2.1 µM; in test [2], 6.5 ± 1.9 µM; in test [4], 4.2 to 9.5 µM. Also, the “Effect of exogenous human RXRWT on VDR transactivation” value in test [3] (co-transfected human RXRWT, vs VDR alone) was “significantly enhanced transactivation”. In addition, in test [3] (compared to either coregulator individually), the “Effect of RXRWT+SRC1 or RXRWT+GRIP1 on VDR transactivation” value is recorded as “significantly enhanced VDR transactivation”.

The values above are taken from publication PMC5152921, “Evolutionary and Functional Diversification of the Vitamin D Receptor-Lithocholic Acid Partnership” (PLoS ONE, 2016).
